Data from ChEMBL document CHEMBL5370549, “Optimization and evaluation of pyridinyl vinyl sulfones as Nrf2 activator for the antioxidant and anti-inflammatory effects” (Eur J Med Chem, 2023).

What was measured:
[1] = target: CYP3A4 (Homo sapiens, UniProt P08684); test: Inhibition of CYP3A4 (unknown origin) assessed as enzyme activity at 10 uM relative to control; type: ADME; parameters: scale not given: the % may be the effect or the level left; settings: read-out: Activity
[2] = Metabolic stability of the compound in rat plasma assessed as parent compound remaining measured after 30 mins; type: ADME, cell-free; settings: read-out: Stability
[3] = Metabolic stability of the compound in mouse liver microsomes assessed as parent compound remaining measured after 30 mins; type: ADME, Microsome; settings: read-out: Stability
[4] = Metabolic stability of the compound in human liver microsomes assessed as parent compound remaining measured after 30 mins; type: ADME, Microsome; settings: read-out: Stability
[5] = target: T1, CYP1A2 (Homo sapiens, UniProt P05177); test: Inhibition of CYP1A2 (unknown origin) assessed as enzyme activity at 10 uM relative to control; type: ADME; parameters: scale not given: the % may be the effect or the level left; settings: read-out: Activity
T1 sequence (P05177 whole entry): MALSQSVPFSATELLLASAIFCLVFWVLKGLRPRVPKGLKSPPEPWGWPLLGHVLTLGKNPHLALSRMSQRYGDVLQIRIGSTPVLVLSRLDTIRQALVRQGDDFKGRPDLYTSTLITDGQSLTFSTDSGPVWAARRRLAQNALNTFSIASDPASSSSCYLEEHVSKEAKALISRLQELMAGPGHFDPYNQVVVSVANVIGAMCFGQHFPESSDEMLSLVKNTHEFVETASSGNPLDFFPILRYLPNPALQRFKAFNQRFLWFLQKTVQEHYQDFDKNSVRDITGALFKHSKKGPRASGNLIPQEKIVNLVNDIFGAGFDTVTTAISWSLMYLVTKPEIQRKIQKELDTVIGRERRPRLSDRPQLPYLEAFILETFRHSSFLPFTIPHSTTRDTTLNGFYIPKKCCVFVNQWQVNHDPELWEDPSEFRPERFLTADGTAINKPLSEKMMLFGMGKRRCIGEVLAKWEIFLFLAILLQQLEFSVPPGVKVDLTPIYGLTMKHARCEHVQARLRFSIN

[6] = Metabolic stability of the compound in human plasma assessed as parent compound remaining measured after 30 mins; type: ADME, cell-free; settings: read-out: Stability
[7] = target: CYP2C9 (Homo sapiens, UniProt P11712); test: Inhibition of CYP2C9 (unknown origin) assessed as enzyme activity at 10 uM relative to control; type: ADME; parameters: scale not given: the % may be the effect or the level left; settings: read-out: Activity
Sequence of CYP2C9 (P11712 whole entry): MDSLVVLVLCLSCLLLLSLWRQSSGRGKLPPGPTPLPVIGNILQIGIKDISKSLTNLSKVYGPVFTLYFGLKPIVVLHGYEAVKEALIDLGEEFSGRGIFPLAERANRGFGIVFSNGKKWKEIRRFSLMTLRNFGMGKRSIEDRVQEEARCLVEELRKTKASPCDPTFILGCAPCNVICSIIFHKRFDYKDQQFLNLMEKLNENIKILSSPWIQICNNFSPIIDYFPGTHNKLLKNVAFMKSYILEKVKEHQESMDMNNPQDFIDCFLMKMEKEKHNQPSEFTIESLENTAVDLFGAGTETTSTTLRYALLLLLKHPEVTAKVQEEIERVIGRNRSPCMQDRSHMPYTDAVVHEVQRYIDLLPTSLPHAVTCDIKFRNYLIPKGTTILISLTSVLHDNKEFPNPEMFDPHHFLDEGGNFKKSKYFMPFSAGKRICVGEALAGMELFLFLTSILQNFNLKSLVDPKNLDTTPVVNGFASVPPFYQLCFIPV

[8] = target: T2, Nuclear factor erythroid 2-related factor 2 (Homo sapiens, UniProt Q16236); test: Activation of Nrf2 in human U2OS cells co-expressing Keap1 assessed as induction of Nrf2 nuclear translocation incubated for 6 hrs by PathHunter chemiluminescence based analysis; type: cell-based
T2 sequence (Q16236 whole entry): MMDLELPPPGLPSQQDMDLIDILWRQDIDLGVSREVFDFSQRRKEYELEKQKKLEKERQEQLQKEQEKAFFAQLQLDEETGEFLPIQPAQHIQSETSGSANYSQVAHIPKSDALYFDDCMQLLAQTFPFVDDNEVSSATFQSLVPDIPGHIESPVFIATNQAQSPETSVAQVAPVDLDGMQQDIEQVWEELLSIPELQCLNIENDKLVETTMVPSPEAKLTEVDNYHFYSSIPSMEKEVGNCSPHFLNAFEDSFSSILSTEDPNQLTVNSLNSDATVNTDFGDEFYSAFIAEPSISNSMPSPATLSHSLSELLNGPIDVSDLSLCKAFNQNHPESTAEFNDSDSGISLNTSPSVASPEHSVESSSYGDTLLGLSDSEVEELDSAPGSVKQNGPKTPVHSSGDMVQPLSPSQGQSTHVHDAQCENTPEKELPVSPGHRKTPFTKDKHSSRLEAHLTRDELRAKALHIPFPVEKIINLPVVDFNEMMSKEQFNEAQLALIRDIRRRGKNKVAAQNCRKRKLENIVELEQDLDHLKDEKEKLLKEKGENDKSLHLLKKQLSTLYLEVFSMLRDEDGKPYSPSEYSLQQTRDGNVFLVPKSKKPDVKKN

[9] = target: CYP2C19 (Homo sapiens, UniProt P33261); test: Inhibition of CYP2C19 (unknown origin) assessed as enzyme activity at 10 uM relative to control; type: ADME; parameters: scale not given: the % may be the effect or the level left; settings: read-out: Activity
Sequence of CYP2C19 (P33261 whole entry): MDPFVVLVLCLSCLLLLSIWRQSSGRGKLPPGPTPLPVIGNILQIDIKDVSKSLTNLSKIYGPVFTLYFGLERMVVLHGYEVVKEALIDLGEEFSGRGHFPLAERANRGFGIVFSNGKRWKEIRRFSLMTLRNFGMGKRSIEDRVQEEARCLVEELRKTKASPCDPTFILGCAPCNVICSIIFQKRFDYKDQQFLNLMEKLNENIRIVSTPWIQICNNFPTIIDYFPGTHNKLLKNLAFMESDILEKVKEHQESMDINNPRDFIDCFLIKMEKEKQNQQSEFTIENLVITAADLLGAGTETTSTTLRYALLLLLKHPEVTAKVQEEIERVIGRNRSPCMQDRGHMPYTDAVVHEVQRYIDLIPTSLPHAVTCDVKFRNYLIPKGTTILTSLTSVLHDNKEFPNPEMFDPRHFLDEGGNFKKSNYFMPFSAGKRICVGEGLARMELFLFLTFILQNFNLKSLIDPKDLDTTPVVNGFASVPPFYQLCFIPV

[10] = target: CYP2D6 (Homo sapiens, UniProt P10635); test: Inhibition of CYP2D6 (unknown origin) assessed as enzyme activity at 10 uM relative to control; type: ADME; parameters: scale not given: the % may be the effect or the level left; settings: read-out: Activity
Sequence of CYP2D6 (P10635 whole entry): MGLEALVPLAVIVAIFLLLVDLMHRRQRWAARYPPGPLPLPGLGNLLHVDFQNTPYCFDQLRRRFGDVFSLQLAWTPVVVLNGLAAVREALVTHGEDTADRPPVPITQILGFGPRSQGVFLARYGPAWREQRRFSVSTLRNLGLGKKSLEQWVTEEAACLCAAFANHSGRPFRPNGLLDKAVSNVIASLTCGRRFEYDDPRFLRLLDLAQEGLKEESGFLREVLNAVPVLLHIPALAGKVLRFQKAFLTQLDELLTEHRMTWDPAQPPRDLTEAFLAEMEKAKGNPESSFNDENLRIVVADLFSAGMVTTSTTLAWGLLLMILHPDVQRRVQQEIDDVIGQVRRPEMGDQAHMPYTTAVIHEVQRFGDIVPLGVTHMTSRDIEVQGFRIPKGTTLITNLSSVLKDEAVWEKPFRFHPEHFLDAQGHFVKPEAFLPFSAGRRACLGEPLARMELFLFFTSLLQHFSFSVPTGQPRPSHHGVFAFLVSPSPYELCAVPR

Sequence of CYP3A4 (P08684 whole entry): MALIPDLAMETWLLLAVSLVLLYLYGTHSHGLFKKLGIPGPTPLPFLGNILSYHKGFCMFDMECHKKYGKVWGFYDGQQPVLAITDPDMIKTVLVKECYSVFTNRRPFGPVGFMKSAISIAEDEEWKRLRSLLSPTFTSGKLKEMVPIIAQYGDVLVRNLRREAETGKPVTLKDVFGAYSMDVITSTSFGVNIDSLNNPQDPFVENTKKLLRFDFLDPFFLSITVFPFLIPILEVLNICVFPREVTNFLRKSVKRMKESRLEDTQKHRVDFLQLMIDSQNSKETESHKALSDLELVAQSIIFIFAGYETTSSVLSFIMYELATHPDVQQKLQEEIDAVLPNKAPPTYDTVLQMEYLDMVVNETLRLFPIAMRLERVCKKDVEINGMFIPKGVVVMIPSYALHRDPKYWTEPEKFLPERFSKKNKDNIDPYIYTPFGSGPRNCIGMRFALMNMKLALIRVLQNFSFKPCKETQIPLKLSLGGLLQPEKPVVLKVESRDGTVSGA

| SMILES | activity at 10 µM [1] | remaining at 0.5 h [2] | remaining at 0.5 h [3] | remaining at 0.5 h [4] | activity at 10 µM [5] | remaining at 0.5 h [6] | activity at 10 µM [7] | EC50 [8] | activity at 10 µM [9] | activity at 10 µM [10] |
| --- | --- | --- | --- | --- | --- | --- | --- | --- | --- | --- |
| COc1cccnc1S(=O)(=O)/C=C/c1ncccc1C(F)(F)F | 36.4% | 84.1% | 64.7% | 87.8% | 72.6% | 94% | 69.7% | 107 nM | 60.5% | > 99% |
| COc1ccnc(S(=O)(=O)/C=C/c2ncccc2C(F)(F)F)c1 | 83.2% | 82.4% | 19% | 63.2% | 72.2% | 90.9% | 31% | 174 nM | 29.8% | > 99% |
| COc1cccc(S(=O)(=O)/C=C/c2ncccc2Cl)n1 | 36.8% | 83% | 9.6% | 49.4% | 23.1% | > 99% | > 99% | 93 nM | 12.5% | 96% |
| COc1ccnc(S(=O)(=O)/C=C/c2ccccc2Cl)c1 | 49.8% | 96.5% | 2.2% | 22.8% | 28.5% | > 99% | 73.6% | 58 nM | 11.1% | 97.5% |
| COc1ccnc(S(=O)(=O)/C=C/c2cccc(Cl)c2)c1 | 38.2% | 94.7% | 8.7% | 54.6% | 63.4% | > 99% | > 99% | 824 nM | 7% | 97.2% |
| COc1ccc(S(=O)(=O)/C=C/c2ccccc2Cl)nc1 | 58.8% | > 99% | 5.6% | 9.5% | 46.1% | > 99% | > 99% | 130 nM | 5.4% | 100% |

More lines, now with the values ahead:

| activity at 10 µM [1] | remaining at 0.5 h [2] | remaining at 0.5 h [3] | remaining at 0.5 h [4] | activity at 10 µM [5] | remaining at 0.5 h [6] | activity at 10 µM [7] | EC50 [8] | activity at 10 µM [9] | activity at 10 µM [10] | SMILES |
| --- | --- | --- | --- | --- | --- | --- | --- | --- | --- | --- |
| 48.5% | 98.9% | 48.1% | 75.2% | 10.7% | > 99% | > 99% | 189 nM | 7.1% | 99.5% | COc1ncccc1S(=O)(=O)/C=C/c1ccccc1Cl |
| 58% | 94.7% | 2.7% | 31.7% | 27.8% | 99% | > 99% | 245 nM | 3.7% | 100% | COc1ccc(S(=O)(=O)/C=C/c2ccccc2C(F)(F)F)nc1 |
| 89.8% | 93% | 63.6% | 89.4% | 79.4% | 95.9% | 79.7% | 801 nM | 68.4% | 98.8% | COc1cccnc1S(=O)(=O)/C=C/c1ccccc1F |
| 39.8% | 95.3% | 1.6% | 58.5% | 33.8% | 99% | 38.2% | 115 nM | 14.9% | 96.3% | COc1ccnc(S(=O)(=O)/C=C/c2ccccc2C(F)(F)F)c1 |
| 88.9% | 91.9% | 60.1% | 57.2% | 61.1% | 96.2% | > 99% | 275 nM | 21.7% | > 99% | COc1ccc(S(=O)(=O)/C=C/c2ncccc2C(F)(F)F)nc1 |
| 32.5% | 82.7% | 4% | 38.8% | 18.2% | 94.2% | 81.9% | 194 nM | 15.1% | > 99% | COc1cccc(S(=O)(=O)/C=C/c2ncccc2C(F)(F)F)n1 |
| 51.7% | 89.3% | 48.1% | 75.2% | 12.4% | 91.3% | > 99% | 749 nM | 16.2% | 94.4% | COc1ncccc1S(=O)(=O)/C=C/c1ccccc1C(F)(F)F |
